Measured values: patent US12371454B2, “Cyclic peptide compound having Kras inhibitory action” (priority 2019, dated 2025)
Starred links: 1 amine or outer side, 2 acyl side, 3 side chain; linkers in the order of their positions; H or OH if unused. Positions of bridges follow the written chain, without caps; N, C: chain ends. Non-standard residues stand in square brackets, D forms with d. Residues, ends and D or L forms follow the SMILES beside them. *: point of attachment. hPhe(3-Cl-4-CF3) = N[C@@H](CCc1ccc(C(F)(F)F)c(Cl)c1)C(=O)O; hPhe(3-F,4-CF3) = N[C@@H](CCc1ccc(C(F)(F)F)c(F)c1)C(=O)O; hPhe(4-CF3) = N[C@@H](CCc1ccc(C(F)(F)F)cc1)C(=O)O; NMePhe(3-Me) = CN[C@@H](Cc1cccc(C)c1)C(=O)O; NMePhe(4-I) = CN[C@@H](Cc1ccc(I)cc1)C(=O)O; NMedβ3hAla = C[C@H](CC(=O)[*:2])N(C)[*:1]; Morpholine(3S-CO) = O=C(O)[C@@H]1COCCN1; NMeCha = CN[C@@H](CC1CCCCC1)C(=O)O; NMeCba = CN[C@@H](CC1CCC1)C(=O)O; NMeChg = CN[C@H](C(=O)O)C1CCCCC1; NMeD = CN[C@@H](CC(=O)O)C(=O)O; NMeHpra = C#CCC[C@H](NC)C(=O)O; NMeL = CN[C@@H](CC(C)C)C(=O)O; NMeV = CN[C@H](C(=O)O)C(C)C; NMeS = CN[C@@H](CO)C(=O)O; Morpholide = C1CN(*)CCO1; NMeA = CN[C@@H](C)C(=O)O; Piperidide = C1CCN(*)CC1; Ac5c = NC1(C(=O)O)CCCC1; Aze = O=C(O)[C@@H]1CCN1; Cyclopropyl = C1CC1*; Sar = CNCC(=O)O

What was measured:
[1] = tested on: Human pancreatic cancer cell line AsPC-1; assay: Measurement of AsPC-1 cell growth inhibition (AsPC-1 CGI); format: cell-based; conditions: 96 h
Outline: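 AsPC-1 cells in 15% FBS RPMI-1640 were exposed to test compound for 96 hours at 37° C, with CellTiter-Glo as endpoint.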

[2] = biological target: T1, Kras and SOS1 (biotin-tagged human Kras loaded with GDP, His-tagged human SOS1) (Homo sapiens, UniProt P01116, G12D); assay: Protein-protein interaction inhibition between Kras and SOS1 (KrasGl2D-SOS PPI) using AlphaScreen; format: binding; conditions: AlphaScreen; biotin-tagged human Kras loaded with GDP, His-tagged human SOS1; read-out: KRAS G12D-SOS PPI IC50
T1 construct: made in house; host or cells: E. coli (stated for Kras only)
T1 sequence (P01116 1-188 isoform P01116-2 G12D): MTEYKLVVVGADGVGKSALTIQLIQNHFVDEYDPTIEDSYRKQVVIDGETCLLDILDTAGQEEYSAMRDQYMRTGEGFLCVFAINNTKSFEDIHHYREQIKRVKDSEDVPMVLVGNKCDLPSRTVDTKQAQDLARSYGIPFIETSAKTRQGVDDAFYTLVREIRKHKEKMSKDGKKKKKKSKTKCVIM
Outline: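 Read-out is acceptor-bead light at 520-620 nm, arising when 680 nm-irradiated nickel donor beads pass singlet oxygen to streptavidin acceptors. The bead pair links His-tagged SOS1 with biotin-tagged, GDP-bound Kras from E. coli.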

Row | SMILES | IC50 [1] | IC50 [2]
1 | CC[C@H](C)[C@@H]1NC(=O)[C@H](C)N(C)C(=O)C[C@@H](C(=O)N2CCCCC2)N(C)C(=O)[C@H](C2CCCCC2)N(C)C(=O)C2(CCCC2)NC(=O)[C@@H]2CCCN2C(=O)[C@H](CCc2ccc(C(F)(F)F)c(F)c2)NC(=O)CN(C)C(=O)[C@H](CC2CCCCC2)N(C)C(=O)CN(C)C(=O)CN(C)C1=O [Compound 491] ([NMeA]I[Sar][Sar][NMeCha][Sar][hPhe(3-F,4-CF3)]P[Ac5c][NMeChg][NMeD]-Piperidide; lactam N-11) | 100 to 500 nM | 0.35 nM
2 | CC[C@H](C)[C@@H]1NC(=O)[C@H](CC(C)C)N(C)C(=O)C[C@@H](C(=O)N2CCCCC2)N(C)C(=O)[C@H](CC2CCC2)N(C)C(=O)C2(CCCC2)NC(=O)[C@@H]2CCCN2C(=O)[C@H](CCc2ccc(C(F)(F)F)c(Cl)c2)NC(=O)CN(C)C(=O)[C@H](CC2CCCCC2)N(C)C(=O)[C@@H]2CCN2C(=O)[C@H](C)N(C)C1=O [Compound 1860] ([NMeL]I[NMeA][Aze][NMeCha][Sar][hPhe(3-Cl-4-CF3)]P[Ac5c][NMeCba][NMeD]-Piperidide; lactam N-11) | 100 to 500 nM | 11 nM
3 | CC[C@H](C)[C@@H]1NC(=O)[C@H](C)N(C)C(=O)C[C@@H](C(=O)N2CCOCC2)N(C)C(=O)[C@H](C2CCCCC2)N(C)C(=O)C2(CCCC2)NC(=O)[C@@H]2CCCN2C(=O)[C@H](CCc2ccc(C(F)(F)F)c(Cl)c2)NC(=O)CN(C)C(=O)[C@H](CC2CCCCC2)N(C)C(=O)CN(C)C(=O)CN(C)C1=O [Compound 1847] ([NMeA]I[Sar][Sar][NMeCha][Sar][hPhe(3-Cl-4-CF3)]P[Ac5c][NMeChg][NMeD]-Morpholide; lactam N-11) | 100 to 500 nM | 0.63 nM
4 | CC[C@H](C)[C@@H]1NC(=O)[C@H](CC(C)C)N(C)C(=O)C[C@@H](C(=O)N2CCOCC2)N(C)C(=O)[C@H](C2CCCCC2)N(C)C(=O)C2(CCCC2)NC(=O)[C@@H]2CCCN2C(=O)[C@H](CCc2ccc(C(F)(F)F)cc2)NC(=O)CN(C)C(=O)[C@H](CC2CCCCC2)N(C)C(=O)CN(C)C(=O)CN(C)C1=O [Compound 1947] ([NMeL]I[Sar][Sar][NMeCha][Sar][hPhe(4-CF3)]P[Ac5c][NMeChg][NMeD]-Morpholide; lactam N-11) | 50 to 100 nM | 1.2 nM
5 | CC[C@H](C)[C@@H]1NC(=O)[C@H](CC(C)C)N(C)C(=O)C[C@@H](C(=O)N2CCCCC2)N(C)C(=O)[C@H](C2CCCCC2)N(C)C(=O)C2(CCCC2)NC(=O)[C@@H]2COCCN2C(=O)[C@H](CCc2ccc(C(F)(F)F)c(Cl)c2)NC(=O)CN(C)C(=O)[C@H](CC2CCCCC2)N(C)C(=O)CN(C)C(=O)CN(C)C1=O [Compound 662] ([NMeL]I[Sar][Sar][NMeCha][Sar][hPhe(3-Cl-4-CF3)][Morpholine(3S-CO)][Ac5c][NMeChg][NMeD]-Piperidide; lactam N-11) | 50 to 100 nM | 3.2 nM
6 | CC[C@H](C)[C@@H]1NC(=O)[C@H](CC(C)C)N(C)C(=O)C[C@@H](C(=O)N2CCOCC2)N(C)C(=O)[C@H](C(C)C)N(C)C(=O)C2(CCCC2)NC(=O)[C@@H]2CCCN2C(=O)[C@H](CCc2ccc(C(F)(F)F)c(Cl)c2)NC(=O)CN(C)C(=O)[C@H](CC2CCCCC2)N(C)C(=O)CN(C)C(=O)CN(C)C1=O [Compound 1934] ([NMeL]I[Sar][Sar][NMeCha][Sar][hPhe(3-Cl-4-CF3)]P[Ac5c][NMeV][NMeD]-Morpholide; lactam N-11) | 100 to 500 nM | 1 nM
7 | CC[C@H](C)[C@@H]1NC(=O)[C@H](CC(C)C)N(C)C(=O)C[C@@H](C)N(C)C(=O)[C@H](C(C)C)N(C)C(=O)C2(CCCC2)NC(=O)[C@@H]2CCCN2C(=O)[C@H](CCc2ccc(C(F)(F)F)c(Cl)c2)NC(=O)CN(C)C(=O)[C@H](Cc2cccc(C)c2)N(C)C(=O)CN(C)C(=O)CN(C)C1=O [Compound 1570] (cyclo([Ac5c][NMeV][NMedβ3hAla][NMeL]I[Sar][Sar][NMePhe(3-Me)][Sar][hPhe(3-Cl-4-CF3)]P)) | 50 to 100 nM | 4.3 nM
8 | C#CCC[C@H]1C(=O)N[C@@H]([C@@H](C)CC)C(=O)N(C)CC(=O)N(C)CC(=O)N(C)[C@@H](Cc2ccc(I)cc2)C(=O)N(C)CC(=O)N[C@@H](CCc2ccc(C(F)(F)F)c(Cl)c2)C(=O)N2CCC[C@H]2C(=O)NC2(CCCC2)C(=O)N(C)[C@@H](C2CCCCC2)C(=O)N(C)[C@H](C)CC(=O)N1C [Compound 110] (cyclo([Ac5c][NMeChg][NMedβ3hAla][NMeHpra]I[Sar][Sar][NMePhe(4-I)][Sar][hPhe(3-Cl-4-CF3)]P)) | 100 to 500 nM | 3.8 nM
9 | CC[C@H](C)[C@@H]1NC(=O)[C@H](CC(C)C)N(C)C(=O)C[C@@H](C(=O)N2CCCCC2)N(C)C(=O)[C@H](C2CCCCC2)N(C)C(=O)C2(CCCC2)NC(=O)[C@@H]2CCCN2C(=O)[C@H](CCc2ccc(C(F)(F)F)c(Cl)c2)NC(=O)CN(C)C(=O)[C@H](COC2CC2)N(C)C(=O)CN(C)C(=O)CN(C)C1=O [Compound 1731] ([NMeL]I[Sar][Sar][NMeS](Cyclopropyl)[Sar][hPhe(3-Cl-4-CF3)]P[Ac5c][NMeChg][NMeD]-Piperidide; lactam N-11) | 100 to 500 nM | 1.9 nM
